Experiments:
Assay type in all cases: functional
[1] = system: NCI-H460; assay: Growth inhibition of human NCI-H460 cells assessed as cell growth at 5X10'-8 M after 48 hrs by sulforhodamine B assay; conditions: NCI-H460, 48 h, read-out: Activity
[2] = system: PC-3; assay: Growth inhibition of human PC3 cells assessed as cell growth at 3X10'-9 M after 48 hrs by sulforhodamine B assay; conditions: PC-3, 48 h, read-out: Activity
[3] = system: SF-539; assay: Growth inhibition of human SF539 cells assessed as cell growth at 3X10'-7 M after 48 hrs by sulforhodamine B assay; conditions: SF-539, 48 h, read-out: Activity
[4] = system: BT-549; assay: Growth inhibition of human BT549 cells assessed as cell growth at 3X10'-9 M after 48 hrs by sulforhodamine B assay; conditions: BT-549, 48 h, read-out: Activity
[5] = system: A498; assay: Growth inhibition of human A498 cells assessed as cell growth at 3X10'-7 M after 48 hrs by sulforhodamine B assay; conditions: A498, 48 h, read-out: Activity
[6] = system: SNB-75; assay: Growth inhibition of human SNB75 cells assessed as cell growth at 3X10'-8 M after 48 hrs by sulforhodamine B assay; conditions: SNB-75, 48 h, read-out: Activity
[7] = system: NCI-H226; assay: Growth inhibition of human NCI-H226 cells assessed as cell growth at 3X10'-7 M after 48 hrs by sulforhodamine B assay; conditions: NCI-H226, 48 h, read-out: Activity
[8] = system: MDA-MB-468; assay: Growth inhibition of human MDA-MB-468 cells assessed as cell growth at 3X10'-9 M after 48 hrs by sulforhodamine B assay; conditions: MDA-MB-468, 48 h, read-out: Activity
[9] = system: SF-268; assay: Growth inhibition of human SF268 cells assessed as cell growth at 3X10'-7 M after 48 hrs by sulforhodamine B assay; conditions: SF-268, 48 h, read-out: Activity
[10] = system: OVCAR-8; assay: Growth inhibition of human OVCAR8 cells assessed as cell growth at 3X10'-5 M after 48 hrs by sulforhodamine B assay; conditions: OVCAR-8, 48 h, read-out: Activity
[11] = system: KM12; assay: Growth inhibition of human KM12 cells assessed as cell growth at 3X10'-6 M after 48 hrs by sulforhodamine B assay; conditions: KM12, 48 h, read-out: Activity
[12] = system: SK-MEL-28; assay: Growth inhibition of human SK-MEL-28 cells assessed as cell growth at 3X10'-5 M after 48 hrs by sulforhodamine B assay; conditions: SK-MEL-28, 48 h, read-out: Activity
[13] = system: SK-MEL-28; assay: Growth inhibition of human SK-MEL-28 cells assessed as cell growth at 3X10'-7 M after 48 hrs by sulforhodamine B assay; conditions: SK-MEL-28, 48 h, read-out: Activity
[14] = system: UO-31; assay: Growth inhibition of human UO31 cells assessed as cell growth at 3X10'-7 M after 48 hrs by sulforhodamine B assay; conditions: UO-31, 48 h, read-out: Activity
[15] = system: A498; assay: Growth inhibition of human A498 cells assessed as cell growth at 3X10'-8 M after 48 hrs by sulforhodamine B assay; conditions: A498, 48 h, read-out: Activity
[16] = system: HCT-116; assay: Growth inhibition of human HCT116 cells assessed as cell growth at 3X10'-7 M after 48 hrs by sulforhodamine B assay; conditions: HCT-116, 48 h, read-out: Activity
[17] = system: HCT-15; assay: Growth inhibition of human HCT15 cells assessed as cell growth at 3X10'-9 M after 48 hrs by sulforhodamine B assay; conditions: HCT-15, 48 h, read-out: Activity
[18] = system: HT-29; assay: Growth inhibition of human HT-29 cells assessed as cell growth at 3X10'-9 M after 48 hrs by sulforhodamine B assay; conditions: HT-29, 48 h, read-out: Activity
[19] = Growth inhibition of human Hs 578T cells assessed as cell growth at 3X10'-5 M after 48 hrs by sulforhodamine B assay; conditions: read-out: Activity
[20] = system: M14; assay: Growth inhibition of human M14 cells assessed as cell growth at 3X10'-6 M after 48 hrs by sulforhodamine B assay; conditions: M14, 48 h, read-out: Activity
[21] = system: SK-MEL-5; assay: Growth inhibition of human SK-MEL-5 cells assessed as cell growth at 3X10'-9 M after 48 hrs by sulforhodamine B assay; conditions: SK-MEL-5, 48 h, read-out: Activity
[22] = system: DU-145; assay: Growth inhibition of human DU145 cells assessed as cell growth at 3X10'-9 M after 48 hrs by sulforhodamine B assay; conditions: DU-145, 48 h, read-out: Activity
[23] = system: RPMI-8226; assay: Growth inhibition of human RPMI8226 cells assessed as cell growth at 3X10'-5 M after 48 hrs by sulforhodamine B assay; conditions: RPMI-8226, 48 h, read-out: Activity
[24] = system: U-251; assay: Growth inhibition of human U251 cells assessed as cell growth at 3X10'-7 M after 48 hrs by sulforhodamine B assay; conditions: U-251, 48 h, read-out: Activity
[25] = system: COLO 205; assay: Growth inhibition of human COLO205 cells assessed as cell growth at 3X10'-8 M after 48 hrs by sulforhodamine B assay; conditions: COLO 205, 48 h, read-out: Activity
[26] = system: PC-3; assay: Growth inhibition of human PC3 cells assessed as cell growth at 3X10'-7 M after 48 hrs by sulforhodamine B assay; conditions: PC-3, 48 h, read-out: Activity
[27] = system: SNB-75; assay: Growth inhibition of human SNB75 cells assessed as cell growth at 3X10'-9 M after 48 hrs by sulforhodamine B assay; conditions: SNB-75, 48 h, read-out: Activity
[28] = system: ACHN; assay: Growth inhibition of human ACHN cells assessed as cell growth at 3X10'-7 M after 48 hrs by sulforhodamine B assay; conditions: read-out: Activity
[29] = system: OVCAR-3; assay: Growth inhibition of human OVCAR3 cells assessed as cell growth at 3X10'-5 M after 48 hrs by sulforhodamine B assay; conditions: OVCAR-3, 48 h, read-out: Activity
[30] = system: CCRF-CEM; assay: Growth inhibition of human CCRF-CEM cells assessed as cell growth at 3X10'-9 M after 48 hrs by sulforhodamine B assay; conditions: read-out: Activity
[31] = system: NCI-H226; assay: Growth inhibition of human NCI-H226 cells assessed as cell growth at 3X10'-5 M after 48 hrs by sulforhodamine B assay; conditions: NCI-H226, 48 h, read-out: Activity
[32] = system: MDA-MB-435; assay: Growth inhibition of human MDA-MB-435 cells assessed as cell growth at 3X10'-7 M after 48 hrs by sulforhodamine B assay; conditions: MDA-MB-435, 48 h, read-out: Activity
[33] = system: NCI-H226; assay: Growth inhibition of human NCI-H226 cells assessed as cell growth at 3X10'-9 M after 48 hrs by sulforhodamine B assay; conditions: NCI-H226, 48 h, read-out: Activity
[34] = system: DU-145; assay: Growth inhibition of human DU145 cells assessed as cell growth at 3X10'-8 M after 48 hrs by sulforhodamine B assay; conditions: DU-145, 48 h, read-out: Activity
[35] = system: SW-620; assay: Growth inhibition of human SW620 cells assessed as cell growth at 3X10'-7 M after 48 hrs by sulforhodamine B assay; conditions: SW-620, 48 h, read-out: Activity
[36] = system: NCI-H23; assay: Growth inhibition of human NCI-H23 cells assessed as cell growth at 5X10'-6 M after 48 hrs by sulforhodamine B assay; conditions: NCI-H23, 48 h, read-out: Activity

Structure (SMILES): COc1cc(-c2nn(-c3cccc(NC(=O)Nc4ccc(Cl)c(Cl)c4)c3)cc2-c2ccncc2)ccc1Cl
- growth at 0.05 µM [1]: 102%

Structure (SMILES): COc1cc(-c2nn(-c3cccc(NC(=O)Nc4ccc(Cl)c(C(F)(F)F)c4)c3)cc2-c2ccncc2)ccc1Cl
- growth at 0.003 µM [2]: 95%
- growth at 0.3 µM [3]: 91%
- growth at 0.003 µM [4]: 103%
- growth at 0.3 µM [5]: 76%
- growth at 0.03 µM [6]: 93%
- growth at 0.3 µM [7]: 85%
- growth at 0.003 µM [8]: 101%
- growth at 0.3 µM [9]: 97%
- growth at 30 µM [10]: -13%
- growth at 3 µM [11]: 7%
- growth at 30 µM [12]: -70%
- growth at 0.3 µM [13]: 95%
- growth at 0.3 µM [14]: 85%
- growth at 0.03 µM [15]: 93%
- growth at 0.3 µM [16]: 99%
- growth at 0.003 µM [17]: 94%
- growth at 0.003 µM [18]: 105%
- growth at 30 µM [19]: -8%
- growth at 3 µM [20]: 4%
- growth at 0.003 µM [21]: 98%
- growth at 0.003 µM [22]: 102%
- growth at 30 µM [23]: -7%
- growth at 0.3 µM [24]: 90%
- growth at 0.03 µM [25]: 103%
- growth at 0.3 µM [26]: 80%
- growth at 0.003 µM [27]: 90%
- growth at 0.3 µM [28]: 97%
- growth at 30 µM [29]: -46%
- growth at 0.003 µM [30]: 98%
- growth at 30 µM [31]: 3%
- growth at 0.3 µM [32]: 91%
- growth at 0.003 µM [33]: 99%
- growth at 0.03 µM [34]: 105%
- growth at 0.3 µM [35]: 100%

Structure (SMILES): O=C(Nc1cccc(-n2cc(-c3ccncc3)c(-c3ccc(Cl)c(O)c3)n2)c1)c1ccc(N2CCOCC2)c(C(F)(F)F)c1
- growth at 5 µM [36]: 46%

Structure (SMILES): O=C(Nc1cccc(-n2cc(-c3ccncc3)c(-c3ccc(Cl)c(O)c3)n2)c1)Nc1ccc(Cl)c(Cl)c1
- growth at 0.003 µM [2]: 103%
- growth at 0.3 µM [3]: 87%
- growth at 0.003 µM [4]: 99%
- growth at 0.3 µM [5]: 94%
- growth at 0.03 µM [6]: 92%
- growth at 0.3 µM [7]: 94%
- growth at 0.003 µM [8]: 90%
- growth at 0.3 µM [9]: 102%
- growth at 30 µM [10]: 7%
- growth at 3 µM [11]: 9%
- growth at 30 µM [12]: -27%
- growth at 0.3 µM [13]: 97%
- growth at 0.3 µM [14]: 93%
- growth at 0.03 µM [15]: 95%
- growth at 0.3 µM [16]: 99%
- growth at 0.003 µM [17]: 102%
- growth at 0.003 µM [18]: 100%
- growth at 30 µM [19]: -21%
- growth at 3 µM [20]: 14%
- growth at 0.003 µM [21]: 96%
- growth at 0.003 µM [22]: 104%
- growth at 30 µM [23]: 3%
- growth at 0.3 µM [24]: 100%
- growth at 0.03 µM [25]: 97%
- growth at 0.3 µM [26]: 81%
- growth at 0.003 µM [27]: 88%
- growth at 0.3 µM [28]: 96%
- growth at 30 µM [29]: -37%
- growth at 0.003 µM [30]: 91%
- growth at 30 µM [31]: 12%
- growth at 0.3 µM [32]: 91%
- growth at 0.003 µM [33]: 98%
- growth at 0.03 µM [34]: 100%
- growth at 0.3 µM [35]: 101%

Structure (SMILES): O=C(Nc1cccc(-n2cc(-c3ccncc3)c(-c3ccc(Cl)c(O)c3)n2)c1)Nc1cccc(C(F)(F)F)c1
- growth at 0.003 µM [2]: 95%
- growth at 0.3 µM [3]: 92%
- growth at 0.003 µM [4]: 91%
- growth at 0.3 µM [5]: 80%
- growth at 0.03 µM [6]: 94%
- growth at 0.3 µM [7]: 98%
- growth at 0.003 µM [8]: 95%
- growth at 0.3 µM [9]: 96%
- growth at 30 µM [10]: 7%
- growth at 3 µM [11]: 20%
- growth at 30 µM [12]: 3%
- growth at 0.3 µM [13]: 101%
- growth at 0.3 µM [14]: 90%
- growth at 0.03 µM [15]: 83%
- growth at 0.3 µM [16]: 98%
- growth at 0.003 µM [17]: 95%
- growth at 0.003 µM [18]: 99%
- growth at 30 µM [19]: 11%
- growth at 3 µM [20]: 21%
- growth at 0.003 µM [21]: 103%
- growth at 0.003 µM [22]: 101%
- growth at 30 µM [23]: 5%
- growth at 0.3 µM [24]: 97%
- growth at 0.03 µM [25]: 99%
- growth at 0.3 µM [26]: 82%
- growth at 0.003 µM [27]: 91%
- growth at 0.3 µM [28]: 94%
- growth at 30 µM [29]: -25%
- growth at 0.003 µM [30]: 97%
- growth at 30 µM [31]: 20%
- growth at 0.3 µM [32]: 96%
- growth at 0.003 µM [33]: 98%
- growth at 0.03 µM [34]: 99%
- growth at 0.3 µM [35]: 101%
